≈ marks a conversion by molar mass, not a printed value.
How the values were obtained:
Type in all cases: cell-based, Mycobacterium tuberculosis
mc^26230_R1 = system: mc^26230_R1
mc^26230_R3 = system: mc^26230_R3
[1] = system: mc^26230 overexpressing InhA (pMV261_inhA); assay: microbe, parasite or virus in culture; conditions: for fold change between the strain harboring the empty plasmid pMV261 and the strain overexpressing InhA: MIC pMV261_inhA / MIC pMV261; for MIC: Mycobacterium tuberculosis, read-out: MIC, pMV261_inhA

| SMILES | MIC, mc^26230_R1 (mc^26230_R1) [µg/mL] | fold increase of MIC in the KatG mutated strains versus parental strain (mc^26230_R1) [fold] | MIC, mc^26230_R3 (mc^26230_R3) [µg/mL] | fold change between the strain harboring the empty plasmid pMV261 and the strain overexpressing InhA [1] [fold] | MIC [1] [µg/mL] | MIC, pMV261_inhA [1] |
| --- | --- | --- | --- | --- | --- | --- |
| Cc1ccccc1/C=C1\SC(NNC(=O)c2ccncc2)=NC1=O [9d] | 50 (≈ 148 µM) | 32 | 50 (≈ 148 µM) | 16 | 50 (≈ 148 µM) | – |
| O=C1N=C(NNC(=O)c2ccncc2)S/C1=C\c1ccc(F)cc1 [9j] | 100 (≈ 292 µM) | 8 | 100 (≈ 292 µM) | 8 | 100 (≈ 292 µM) | – |
| O=C1N=C(NNC(=O)c2ccncc2)S/C1=C\c1ccccc1F [9l] | 100 (≈ 292 µM) | 4 | 100 (≈ 292 µM) | – | – | – |
| O=C1N=C(NNC(=O)c2ccncc2)S/C1=C\c1ccc(Cl)cc1 [9n] | 100 (≈ 279 µM) | 8 | 100 (≈ 279 µM) | 4 | 100 (≈ 279 µM) | – |
| O=C1N=C(NNC(=O)c2ccncc2)S/C1=C\c1ccccc1Cl [9p] | 100 (≈ 279 µM) | 4 | 100 (≈ 279 µM) | – | – | – |
| NNC(=O)c1ccncc1 [INH, isoniazid, reference compound] | >10 | – | >10 | 16 | 1.25 (≈ 9.11 µM) | – |
| CO[C@H]1/C=C/O[C@@]2(C)Oc3c(C)c(O)c4c(O)c(c(/C=N/N5CCN(C)CC5)c(O)c4c3C2=O)NC(=O)/C(C)=C\C=C\[C@H](C)[C@H](O)[C@@H](C)[C@@H](O)[C@@H](C)[C@H](OC(C)=O)[C@@H]1C [RIF, reference compound] | – | – | – | 1 | 0.039 (≈ 0.0474 µM) | unaffected |

— article PMC12400508 (RSC Advances, 2025)
